Literature values in publication PMC4506092, “Utilizing Chemical Genomics to Identify Cytochrome b as a Novel Drug Target for Chagas Disease” (PLoS Pathogens, 2015).

System: T. cruzi infection
Details: cited from earlier work; for Parasitological cure rates: Chagas disease patients, clinical testing

SMILES	Parasitological cure rates	Patients with failure to cure infection (treated Chagas patients)	Patients with recrudescence of infection (Chagas patients, 60-day treatment, determined by PCR)
C[C@@H](c1nc(-c2ccc(C#N)cc2)cs1)[C@@](Cn1cncn1)(OCOP(=O)(O)O)c1ccc(F)cc1F [Compound E1224]	20–30%	~ 70%	–
CC[C@@H]([C@H](C)O)n1ncn(-c2ccc(N3CCN(c4ccc(OC[C@@H]5CO[C@@](Cn6cncn6)(c6ccc(F)cc6F)C5)cc4)CC3)cc2)c1=O [posaconazole]	20–30%	–	81%
